Results published in PubChem BioAssay AID1645865 (Buhrlage Lab, Dana-Farber Cancer Institute and Novartis …, 2021).
Activity calls are given as the source filed them.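 The calls were made as follows: active = maximal inhibition of the USP30 enzyme reaching 30% or more across the dose series; inactive = the rest.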

What follows are compounds tested against Ubiquitin carboxyl-terminal hydrolase 30 (Homo sapiens) (UniProt Q70CQ3) (assay: inhibitors of ubiquitin-specific protease 30 deubiquitylating enzyme, concentration dependence, in vitro biochemical, validation of primary hits (AID 1645865)). Settings: purified USP30, Ub-rhodamine cleavage, fluorescence, 2 h.
Sequence of Ubiquitin carboxyl-terminal hydrolase 30 (Homo sapiens) (Q70CQ3 whole entry, looked up): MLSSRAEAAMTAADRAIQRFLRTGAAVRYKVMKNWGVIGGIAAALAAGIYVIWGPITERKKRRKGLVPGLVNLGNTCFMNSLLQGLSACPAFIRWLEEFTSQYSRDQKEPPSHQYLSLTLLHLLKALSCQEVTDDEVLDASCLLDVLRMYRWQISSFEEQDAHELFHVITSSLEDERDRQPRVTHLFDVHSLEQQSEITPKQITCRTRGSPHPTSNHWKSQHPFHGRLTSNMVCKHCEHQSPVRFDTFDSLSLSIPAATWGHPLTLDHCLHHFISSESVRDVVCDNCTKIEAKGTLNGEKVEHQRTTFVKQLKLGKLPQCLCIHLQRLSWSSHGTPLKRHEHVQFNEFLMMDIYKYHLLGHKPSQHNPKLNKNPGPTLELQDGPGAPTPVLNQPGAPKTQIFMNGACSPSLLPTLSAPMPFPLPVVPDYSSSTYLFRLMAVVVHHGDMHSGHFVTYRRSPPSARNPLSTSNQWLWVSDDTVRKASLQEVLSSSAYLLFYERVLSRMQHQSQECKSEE

| SMILES | IC50 |
| --- | --- |
| COc1ccc(C2SCC(=O)Nc3c2c(=O)[nH]n3C2CCCCC2)cc1 (stereo not given) | 30.1 µM |
| CN1CCN(C(=O)c2cc(-c3ccn(CC4CC4)n3)n3ccccc23)CC1 | > 50 µM (inactive) |
| Cc1nn(-c2ccccc2)c(C)c1C(=O)OCC(=O)Nc1cccc(C#N)c1 | > 50 µM (inactive) |
| Cc1ccc(C(=O)Nc2cc3c4c(c2)CC(=O)N4CCC3)cc1C | > 50 µM (inactive) |
| CCN(CC)C(=O)CN1CCCC(c2ncncc2-c2cc(C)no2)C1 (stereo not given) | > 50 µM (inactive) |
| COc1cc(NC(=O)c2ccc3c(c2)OCO3)ccc1-c1cc2ccccc2oc1=O | 0.363 µM |
| CCc1ccc2c(c1)[C@]1(C(=O)N2)[C@@H]2C(=O)N(c3ccc(Cl)cc3Cl)C(=O)[C@@H]2[C@@H]2CCCN21 | > 50 µM (inactive) |
| O=C(NCc1ccccc1Cl)c1ccc2cn[nH]c2c1 | > 50 µM (inactive) |
| O=C1Nc2ccccc2C(=O)C1C(c1ccc(Cl)cc1)C1C(=O)Nc2ccccc2C1=O (stereo not given) | > 50 µM (inactive) |
| Cc1ccc(-c2noc(-c3nnc(SCC(=O)NC4CCCC4)n3C)n2)cc1 | 2.22 µM |
| O=C(Nc1ccc(Oc2cccc3cccnc23)cc1)c1cccs1 | > 50 µM (inactive) |
| Cc1ccc(NC(=O)c2sc3ncn(CC(=O)N4CCN(c5ccccn5)CC4)c(=O)c3c2C)c(Br)c1 | 8.36 µM |
| Cc1nn(-c2cccc(F)c2)c2c1c(C)c(CCC(=O)NCc1ccccn1)c(=O)n2C | 3.22 µM |
| COc1ccccc1NC(=O)Cn1cc(C(=O)c2ccc(C)cc2)c(=O)c2ccccc21 | 22.9 µM |
| O=C(c1cc(-c2ccncc2)n[nH]1)N1CCC(C(=O)N2CC=C(c3ccccc3)CC2)CC1 | 33.2 µM |
| Cn1c(=O)c2c(ncn2CC(=O)NC2CCCc3ccccc32)n(C)c1=O (stereo not given) | > 50 µM (inactive) |
| CCOc1ccc2cc3c(nc2c1)OC(=O)N(Cc1ccc(C)o1)C3 | 1.29 µM |
| COc1ccccc1C(=O)N1CCC(S(=O)(=O)c2ccc(-c3ccco3)cc2)CC1 | > 50 µM (inactive) |
| COc1ccc(OC)c(-c2cc(C(=O)Nc3c(C)nn(Cc4ccccc4)c3C)no2)c1 | > 50 µM (inactive) |
| COc1ccc(C)cc1NC(=O)COc1ccc2c(c1)OCO2 | > 50 µM (inactive) |
| CCc1cc2cc3c(cc2nc1SCC(=O)Nc1cccc(C(C)=O)c1)OCO3 | 2.13 µM |
| CC1CCCCN1CCCNC(=O)c1ccc(N2CCc3ccccc32)s1 (stereo not given) | 30.9 µM |
| O=C(CC1C(=O)N(Cc2ccccc2)c2nc3ccccc3n21)NCCc1ccccc1 (stereo not given) | 19.5 µM |
| Cc1ccc(NC(=O)CSc2nc3c(cc2C#N)C(=O)CCC3)cc1 | 31.4 µM |
| CCCNC(=O)c1ccn(-c2ccc3ccc(-c4cnn(C)c4)cn23)n1 | > 50 µM (inactive) |

| SMILES | IC50 |
| --- | --- |
| CCn1c(CNc2ccc(Cl)cc2)nnc1SCC(=O)Nc1ccccc1 | > 50 µM (inactive) |
| O=C(Nc1ccc2c(c1)OCCO2)c1cc(CN2CCOCC2)on1 | > 50 µM (inactive) |
| COc1ccccc1NC(=O)CNC(=O)c1nn(-c2ccc(OC)c(OC)c2)c(=O)c2ccccc12 | 35.6 µM |
| CCn1c(=N)n(CCOc2ccc(F)cc2)c2ccccc21 | 31.8 µM |
| Cc1ccc(C(=O)Nc2ccc(S(=O)(=O)N3CCCC3)cc2)cc1Br | > 50 µM (inactive) |
| O=S1(=O)CCN(Cc2ccccc2)c2c(F)nc(N3CCCCC3)c(F)c21 | > 50 µM (inactive) |
| CCc1cc(C(=O)c2ccc(OC)cc2)c(NC(=O)CN2CCCCC2)s1 | 33.5 µM |
| O=C(COC(=O)c1cc2c(s1)CCC2)c1ccc2[nH]c(=O)[nH]c2c1 | > 50 µM (inactive) |
| O=C(COc1ccc2c(-c3ccccc3)cc(=O)oc2c1)Nc1cccnc1 | 1.3 µM |
| COc1ccc(-c2nc3n(n2)C(CC(=O)Nc2cccc4ccccc24)C(=O)N3)cc1 (stereo not given) | 2.87 µM |
| CS(=O)(=O)c1ccc(NC(=O)C2CN(c3nc4c(F)cccc4s3)C2)cc1 | 31.1 µM |
| Cc1ccc(Cn2c(=O)c3ccccc3n3c(CCC(=O)N4CCN(c5ccccn5)CC4)nnc23)cc1 | 3.41 µM |
| CCC(=O)Nc1cccnc1-c1ccc(C(=O)Nc2cccc(OC)c2)cc1 | > 50 µM (inactive) |
| CCOC(=O)c1cccc(NC(=O)Nc2cccn3nc(C)nc23)c1 | > 50 µM (inactive) |
| O=C(Nc1cccc(C(F)(F)F)c1)N1CCCn2c(nc3ccccc32)C1 | 19.7 µM |
| CO/C=C/C(=O)c1cc2cnc3c(=N)cc(NC(C)=O)c([nH]1)c23 | > 50 µM (inactive) |
| O=C(Nc1cccc2ccccc12)C1CCCN(S(=O)(=O)Cc2ccccc2)C1 (stereo not given) | 4.36 µM |
| COc1ccc(CNC(=O)CN2C(=O)C(C)=C(c3ccc(C)cc3)S2(=O)=O)cc1 | > 50 µM (inactive) |
| O=C(c1cc(Cl)ccc1Cl)N1CCN(c2ccc3nnc(-c4ccco4)n3n2)CC1 | > 50 µM (inactive) |
| O=C(Cn1c(=O)n(Cc2ccc(F)cc2)c(=O)c2sccc21)Nc1cccc(Cl)c1 | 4.47 µM |
| CC(=O)c1cccc(NC(=O)c2ccc(CN(c3ccc(C)c(C)c3)S(C)(=O)=O)cc2)c1 | > 50 µM (inactive) |
| O=C(Cn1c(=O)n(Cc2ccco2)c(=O)c2ccc(C(=O)NC3CCCC3)cc21)NCc1ccco1 | > 50 µM (inactive) |
| CC(=O)Nc1cc2cc(-n3cccc3)ccc2oc1=O | > 50 µM (inactive) |
| CC(=O)c1ccc(NC(=O)CSc2nc(-c3ccccc3)nc3c2COC(C)(C)C3)cc1 | 2.77 µM |
| C/C=C(\Cl)C1=CC(=O)[C@]23C[C@H]2[C@@]2(C)CO[C@@]1(O)[C@@]3(O)O2 | > 50 µM (inactive) |

| SMILES | IC50 |
| --- | --- |
| CCn1c(Cn2cccn2)nc2cc(NC(=O)c3ccc(F)cc3)ccc21 | > 50 µM (inactive) |
| O=c1c(Nc2cccc(F)c2)nc2ccncc2n1Cc1ccccc1 | 26.4 µM |
| CCc1ccc(NC(=O)COC(=O)c2n[nH]c3ccccc23)cc1 | 4.4 µM |
| CC1(C)CC(=O)C2=C(C1)Nc1ccccc1N(C(=O)C(F)(F)F)C2c1cccs1 (stereo not given) | > 50 µM (inactive) |
| Cc1ccc(NC(=O)Cn2cc(S(=O)(=O)N3CCCC3)ccc2=O)cc1 | 20.3 µM |
| Cc1nc2c3ccccc3nc(NCc3ccc4c(c3)OCO4)n2n1 | 32.9 µM |
| Cc1ccc(Nc2nc(NCCc3ccccc3)nc3c2cnn3C)cc1 | 29.2 µM |
| Cc1ccc(Cl)cc1NC(=O)c1cc(-c2ccccn2)n[nH]1 | 6.42 µM |
| O=c1ccc(-c2noc(Cc3c(F)cccc3Cl)n2)c[nH]1 | > 50 µM (inactive) |
| Cc1ccc(NC(=O)c2cnc3c(c2)c(=O)n(C)c(=O)n3C)cc1 | 1.71 µM |
| O=C1NC(=O)/C(=C/c2ccc(OC(=O)c3ccc(Cl)cc3Cl)cc2)N1 | 2.41 µM |
| Cn1c(CN2CCCCCC2)nc2cc(NC(=O)c3ccccc3)ccc21 | > 50 µM (inactive) |
| O=C(CSc1ncnc2c1sc1cccc(F)c12)N1CCCCCC1 | > 50 µM (inactive) |
| O=C(CCc1nnc2n(Cc3ccc(F)cc3)c(=O)c3ccccc3n12)N1CCN(c2ccccn2)CC1 | > 50 µM (inactive) |
| Cc1ccc2[nH]c(=O)c(CN(CC3CCCO3)S(=O)(=O)c3ccccc3)cc2c1 (stereo not given) | 39.4 µM |
| O=C(c1ccco1)N1CCC2(CC1)CC1(CO2)Nc2ccccc2-n2cccc21 (stereo not given) | > 50 µM (inactive) |
| Cc1nn(Cc2ccccc2)c(C)c1C(=O)NC1CCCc2ccccc21 (stereo not given) | > 50 µM (inactive) |
| CC(=O)c1ccc(NC(=O)CC2C(=O)Nc3nc4ccccc4n32)cc1 (stereo not given) | 46.2 µM |
| COc1ccc2nc(SCC(=O)Nc3ccc(NC(C)=O)cc3)c(C)cc2c1 | 4.95 µM |
| O=C(CSc1nncc2ccccc12)Nc1ccc2c(c1)OCO2 | > 50 µM (inactive) |
| O=C1CC(c2cc3c(cc2Br)OCO3)c2cc3c(cc2N1)OCCO3 (stereo not given) | 19.2 µM |
| CN(C(=O)CSc1nnc(-c2cc3ccccc3n2C)o1)c1ccccc1 | > 50 µM (inactive) |
| Cc1ccccc1OCCSc1nc2ccccc2n1CC(=O)NC1CC1 | 15.5 µM |
| COc1ccc(-c2cc(-c3nnc4n3CCCCC4)n(-c3ccccc3)n2)cc1 | 39.3 µM |
| Cc1oc(C2CC2)cc1C(=O)N1CCC2(CC1)CC1(CO2)Nc2ccccc2-n2cccc21 (stereo not given) | > 50 µM (inactive) |

| SMILES | IC50 |
| --- | --- |
| Cc1ccc(-c2ncc(C(=O)NCc3cccc(C)c3)c(-c3ccncc3)n2)cc1 | > 50 µM (inactive) |
| CC(C)c1ccc(/C=C/C(=O)N2CCc3ccccc3C2)cc1 | 21.7 µM |
| Cc1ccc2nc(NC(=O)C3CCCN3S(=O)(=O)c3ccc4c(c3)OCCO4)sc2c1 (stereo not given) | > 50 µM (inactive) |
| O=C(NCc1ccc2c(c1)OCO2)c1nnc(Cc2ccc(F)cc2)o1 | 44.2 µM |
| Oc1sc(C=Nc2cc(Cl)ccc2Cl)c2ccccc12 | 0.981 µM |
| O=C(CSc1nnc(-c2ccncc2)n1Cc1ccccc1)c1ccc2[nH]c(O)cc2c1 | > 50 µM (inactive) |
| COCCn1ccc2nc(C)c(C(=O)Nc3ccc4c(c3)OCCO4)cc2c1=O | 45.2 µM |
| O=C(CSc1cn(Cc2ccccc2)c2ccccc12)Nc1ccc2c(c1)OCCO2 | > 50 µM (inactive) |
| O=C(CSc1nnnn1-c1ccccc1)Nc1ccccc1 | 31.9 µM |
| O=C(Cn1cnc2ccccc21)Nc1ccc2c(c1)CCC2 | 42.6 µM |
| O=C(CCc1nnc2n(Cc3ccccc3)c(=O)c3ccccc3n12)N1CCN(c2ccccn2)CC1 | 2.29 µM |
| Cc1ccc(NC(=O)Cn2c(Nc3cccc(C)c3)nc(C)cc2=O)cc1 | 26.6 µM |
| CC1=C(c2ccc(F)cc2)S(=O)(=O)NC1=NCC(=O)Nc1ccc(F)cc1F | 23.4 µM |
| CCOC(=O)CSc1nnc(-c2cnn(-c3ccccc3)c2N)o1 | 18.2 µM |
| CC(C(=O)NCCc1ccccc1)n1nc(-c2ccccc2)c2cc(Cl)ccc21 (stereo not given) | 25.4 µM |
| Fc1cnc(N2CC[C@H]3CO[C@H](CNc4ncccn4)[C@H]3C2)nc1 | > 50 µM (inactive) |
| CC(C)Cc1nc2sc3c(NCc4ccccc4)ncnc3c2c2c1COC(C)(C)C2 | 4.71 µM |
| Cc1noc(-c2cccc(=O)n2CC(=O)Nc2ccc(C)c(C)c2)n1 | 25 µM |
| COC(=O)[C@]1(O)O[C@@]2(C(=O)OC)c3c(oc4cc(C)cc(O)c4c3=O)[C@H]3c4c(oc5cc(C)cc(O)c5c4=O)C[C@H]1[C@H]32 | > 50 µM (inactive) |
| Nc1ccc(NC(=O)c2cc3c(s2)CCC3)cc1[N+](=O)[O-] | 16.5 µM |
| NS(=O)(=O)c1ccc(CNS(=O)(=O)c2ccc(-c3ccccn3)s2)cc1 | 24.5 µM |
| O=S(=O)(O)c1cc2cc3ccccc3cc2[nH]1 | > 50 µM (inactive) |
| CCCC(=O)N1CCC2(CC1)Nc1ccccc1NC2=O | > 50 µM (inactive) |
| Cc1ccc(NC(=O)c2cnc(N3CCOCC3)nc2)cc1F | 27.6 µM |
| CC(C(=O)Nc1ccccc1)n1cnc2nc(N3CCCCC3)ncc2c1=O (stereo not given) | > 50 µM (inactive) |
